Measured values: patent publication US11033539B2, “Compounds of formulas (VII), (VIII), (IX), (XI), (XII), (XIII), and (XIV) as muscarinic receptor 4(M4) antagonists for treating neurological diseases” (Neurocrine Biosciences, Inc., priority 2015, dated 2021)

Biological target: human M4 receptor (Homo sapiens (Human), UniProt P08173)
Assay: Radioligand (tritiated N-methylscopolamine) binding assay, M4
Conditions: Ki against the M4 receptor; membranes from CHO cells expressing human M4; tritiated N-methylscopolamine 1.5 nM; read-out: Ki
Outline: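 Membranes from CHO cells expressing the receptor were incubated with 1.5 nM radioligand and twelve compound concentrations (10 μM to […]) for 90 min at 37 °C in 50 mM HEPES, 100 mM NaCl, 5 mM MgCl2, 1 mM EDTA, pH 7.4. Bound radioligand was collected by filtration and counted, and Ki was derived from inhibition.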

Chain of human M4 receptor (P08173 whole entry): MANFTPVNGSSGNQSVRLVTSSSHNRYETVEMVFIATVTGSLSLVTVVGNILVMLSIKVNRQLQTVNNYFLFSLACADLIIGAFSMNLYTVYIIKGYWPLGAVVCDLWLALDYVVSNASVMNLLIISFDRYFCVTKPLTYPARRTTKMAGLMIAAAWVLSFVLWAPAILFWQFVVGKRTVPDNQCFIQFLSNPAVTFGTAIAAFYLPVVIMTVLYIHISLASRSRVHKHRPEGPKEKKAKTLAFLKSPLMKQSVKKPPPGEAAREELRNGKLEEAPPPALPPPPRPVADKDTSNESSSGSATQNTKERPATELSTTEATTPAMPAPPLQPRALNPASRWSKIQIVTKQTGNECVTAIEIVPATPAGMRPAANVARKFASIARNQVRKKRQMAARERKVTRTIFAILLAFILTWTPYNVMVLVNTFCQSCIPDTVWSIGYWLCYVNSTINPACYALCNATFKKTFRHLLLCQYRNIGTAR

How did the Ki turn out when `COC(=O)c1cc(Cl)nc(N2CCN(C(=O)NCCC3CCN(Cc4ccccc4)CC3)[C@H](C)C2)n1` [5-11, methyl 2-[(3R)-4-{[2-(1-benzylpiperidin-4-yl)ethyl]carbamoyl}-3-methylpiperazin-1-yl]-6-chloropyrimidine-4-carboxylate] was run?
Its Ki is 100 to 1000 nM.

For `O=C(NCCC1CCN(Cc2ccccc2)CC1)N1CCC(c2ccccc2F)CC1` [8-32, N-[2-(1-benzylpiperidin-4-yl)ethyl]-4-(2-fluorophenyl)piperidine-1-carboxamide], which Ki is on record?
Its Ki is 100 to 1000 nM.

With `Cc1cc(N2CCN(C(=O)NCCC3CCN(Cc4ccccc4)CC3)[C@H](C)C2)ccc1C#N` [4-4, (2R)-N-[2-(1-benzylpiperidin-4-yl)ethyl]-4-(4-cyano-3-methylphenyl)-2-methylpiperazine-1-carboxamide] as the molecule, how does the Ki read?
Its Ki is 100 to 1000 nM.

With `C[C@@H]1CN(c2ncc(C#N)cn2)C[C@H](C)N1C(=O)NCCC1CCN(Cc2ccc(N(C)C)cc2)CC1` [6-43, (2R,6S)-4-(5-cyanopyrimidin-2-yl)-N-[2-(1-{[4-(dimethylamino)-phenyl]methyl}piperidin-4-yl)ethyl]-2,6-dimethylpiperazine-1-carboxamide] as the molecule, how does the Ki read?
Its Ki is 10 to 100 nM.

How did the Ki turn out when `C[C@@H]1CN(c2ccc(C#N)cc2)CCN1C(=O)NCCC1CCN(Cc2ccccc2)CC1` [4-25, (2R)-N-[2-(1-benzylpiperidin-4-yl)ethyl]-4-(4-cyanophenyl)-2-methylpiperazine-1-carboxamide] was run?
Its Ki is 10 to 100 nM.

With `C[C@@H]1CN(c2nccc(C#N)n2)CCN1C(=O)NCCC1CCN(Cc2ccccc2)CC1` [3-15, (2R)-N-[2-(1-benzylpiperidin-4-yl)ethyl]-4-(4-cyanopyrimidin-2-yl)-2-methylpiperazine-1-carboxamide] as the molecule, how does the Ki read?
The Ki was 10 to 100 nM.

For `O=C(NCCC1CCN(Cc2ccccc2)CC1)N1CCC(N2Cc3ccccc3NC2=O)CC1` [8-44, N-[2-(1-benzylpiperidin-4-yl)ethyl]-4-(2-oxo-1,2,3,4-tetrahydroquinazolin-3-yl)piperidine-1-carboxamide], which Ki is on record?
Its Ki is 100 to 1000 nM.

Which Ki does the source give for `C[C@@H]1CN(c2ncc(F)c(C#N)n2)CCN1C(=O)NCCC1CCN(Cc2ccccc2)CC1` [4-55, (2R)-N-[2-(1-benzylpiperidin-4-yl)ethyl]-4-(4-cyano-5-fluoropyrimidin-2-yl)-2-methylpiperazine-1-carboxamide] here?
Its Ki is 100 to 1000 nM.

With `C[C@@H]1CN(c2ncc(C(=O)O)cn2)CCN1C(=O)NCCC1CCN(Cc2ccccc2)CC1` [5-2, 2-[(3R)-4-{[2-(1-benzylpiperidin-4-yl)ethyl]carbamoyl}-3-methylpiperazin-1-yl]pyrimidine-5-carboxylic acid] as the molecule, how does the Ki read?
Its Ki is 100 to 1000 nM.

How did the Ki turn out when `Cc1c(C(=O)NCCC2CCN(Cc3ccccc3)CC2)cnc2cc(-c3ccccc3C(F)(F)F)nn12` [18-11] was run?
Its Ki is 10 to 100 nM.

Which Ki does the source give for `O=C(NCCC1CCN(Cc2ccccc2)CC1)C1CCN(c2ccccc2OC(F)(F)F)CC1` [10-70, N-[2-(1-benzylpiperidin-4-yl)ethyl]-1-[2-(trifluoromethoxy)phenyl]piperidine-4-carboxamide] here?
Its Ki is 100 to 1000 nM.

How did the Ki turn out when `O=C(NCCN[C@@H]1CCN(Cc2ccccc2)C1)C1CCN(c2cccc(OC(F)(F)F)c2)CC1` [9-54, N-(2-{[(3R)-1-benzylpyrrolidin-3-yl]amino}ethyl)-1-[3-(trifluoromethoxy)phenyl]piperidine-4-carboxamide] was run?
The Ki was 100 to 1000 nM.

With `O=C(NCCC1CCN(Cc2ccccc2)CC1)c1ccc(-c2ccc(O)cc2)cc1` [9-69, N-[2-(1-benzylpiperidin-4-yl)ethyl]-4-(4-hydroxyphenyl)benzamide] as the molecule, how does the Ki read?
Its Ki is 100 to 1000 nM.

`Cn1cccc1CN1CCC(CCNC(=O)C2CCN(c3ccc(OC(F)(F)F)cc3)CC2)CC1` [11-15, N-(2-{1-[(1-methyl-1H-pyrrol-2-yl)methyl]piperidin-4-yl}ethyl)-1-[4-(trifluoromethoxy)phenyl]piperidine-4-carboxamide] was tested. Which Ki did it give?
The Ki was 100 to 1000 nM.

How did the Ki turn out when `O=C(NCCC1CCN(Cc2ccccc2)CC1)N1CCN(c2ncccn2)CC1` [8-29, N-[2-(1-benzylpiperidin-4-yl)ethyl]-4-(pyrimidin-2-yl)piperazine-1-carboxamide] was run?
The Ki was 100 to 1000 nM.

How did the Ki turn out when `Cc1c(C(=O)NCCC2CCN(Cc3ccccc3)CC2)cnc2cc(-c3ccccn3)nn12` [18-2, N-[2-(1-benzylpiperidin-4-yl)ethyl]-7-methyl-2-(pyridin-2-yl)pyrazolo[1,5-a]pyrimidine-6-carboxamide] was run?
Its Ki is 100 to 1000 nM.

Which Ki does the source give for `C[C@@H]1CN(c2cc(F)c(F)c(F)c2)CCN1C(=O)NCCC1CCN(Cc2ccc(OC(F)(F)F)cc2)CC1` [6-24, (2R)-2-methyl-N-[2-(1-{[4-(trifluoromethoxy)phenyl]methyl}piperidin-4-yl)ethyl]-4-(3,4,5-trifluorophenyl)piperazine-1-carboxamide] here?
Its Ki is 100 to 1000 nM.

With `O=C(NCCC1CCN(Cc2ccccc2)CC1)C1(O)CCN(c2cccc(OC(F)(F)F)c2)CC1` [10-62, N-[2-(1-benzylpiperidin-4-yl)ethyl]-4-hydroxy-1-[3-(trifluoromethoxy)phenyl]piperidine-4-carboxamide] as the molecule, how does the Ki read?
Its Ki is 100 to 1000 nM.

With `Cc1cc(C(=O)NCC(C)C)nc(N2CCN(C(=O)NCCC3CCN(Cc4ccccc4)CC3)[C@H](C)C2)n1` [27-11] as the molecule, how does the Ki read?
Its Ki is 10 to 100 nM.

With `COc1cccc(CN2CCC(CCNC(=O)c3ccc(OCc4ccccc4)cc3)CC2)c1O` [11-9, 4-(benzyloxy)-N-(2-{1-[(2-hydroxy-3-methoxyphenyl)methyl]piperidin-4-yl}ethyl)benzamide] as the molecule, how does the Ki read?
Its Ki is 100 to 1000 nM.

With `O=C(NCCC1CCN(Cc2ccccc2)CC1)C1CCN(c2ccc(OC(F)(F)F)cn2)CC1` [10-1, N-[2-(1-benzylpiperidin-4-yl)ethyl]-1-[5-(trifluoromethoxy)pyridin-2-yl]piperidine-4-carboxamide] as the molecule, how does the Ki read?
The Ki was 10 to 100 nM.

`O=C(NCCN1CCC(Cc2ccccc2)CC1)c1ccn2cc(-c3ccc(OC(F)(F)F)cc3)nc2c1` [9-68, N-[2-(4-benzylpiperidin-1-yl)ethyl]-2-[4-(trifluoromethoxy)phenyl]imidazo[1,2-a]pyridine-7-carboxamide] was tested. Which Ki did it give?
Its Ki is 100 to 1000 nM.

Which Ki does the source give for `C[C@@H]1CN(c2ncc(C#N)cn2)C[C@H](C)N1C(=O)NCCC1CCN(Cc2ccncc2)CC1` [6-62, (2R,6S)-4-(5-cyanopyrimidin-2-yl)-2,6-dimethyl-N-{2-[1-(pyridin-4-ylmethyl)piperidin-4-yl]ethyl}piperazine-1-carboxamide] here?
The Ki was 100 to 1000 nM.

`Cc1ccc(N2CCN(C(=O)NCCC3CCN(Cc4ccccc4)CC3)[C@H](C)C2)cn1` [4-9, (2R)-N-[2-(1-benzylpiperidin-4-yl)ethyl]-2-methyl-4-(6-methylpyridin-3-yl)piperazine-1-carboxamide] was tested. Which Ki did it give?
Its Ki is 100 to 1000 nM.

How did the Ki turn out when `COc1ccccc1C1CCN(C(=O)NCCC2CCN(Cc3ccccc3)CC2)CC1` [8-6, N-[2-(1-benzylpiperidin-4-yl)ethyl]-4-(2-methoxyphenyl)piperidine-1-carboxamide] was run?
The Ki was 100 to 1000 nM.

How did the Ki turn out when `N#Cc1cc(N2CCN(C(=O)OCCC3CCN(Cc4ccccc4)CC3)CC2)ccc1F` [12-10, 2-(1-benzylpiperidin-4-yl)ethyl 4-(3-cyano-4-fluorophenyl)piperazine-1-carboxylate] was run?
The Ki was 100 to 1000 nM.

For `CC(c1ccccc1)N1CCC(CCNC(=O)N2CCN(c3cc(F)c(F)c(F)c3)C[C@H]2C)CC1` (stereo partly drawn) [6-14, (2R)-2-methyl-N-{2-[1-(1-phenylethyl)piperidin-4-yl]ethyl}-4-(3,4,5-trifluorophenyl)piperazine-1-carboxamide], which Ki is on record?
Its Ki is 10 to 100 nM.

Which Ki does the source give for `Cc1cc(C(=O)NC2CC2)nc(N2CCN(C(=O)NCCC3CCN(Cc4ccccc4)CC3)[C@H](C)C2)n1` [27-14] here?
The Ki was 100 to 1000 nM.

Which Ki does the source give for `O=C(NCCC1CCN(Cc2ccccc2)CC1)N1CCC(c2ccc(F)cc2)CC1` [8-20, N-[2-(1-benzylpiperidin-4-yl)ethyl]-4-(4-fluorophenyl)piperidine-1-carboxamide] here?
The Ki was 100 to 1000 nM.

For `C[C@@H]1CN(c2ccccn2)CCN1C(=O)NCCC1CCN(Cc2ccccc2)CC1` [4-62, (2R)-N-[2-(1-benzylpiperidin-4-yl)ethyl]-2-methyl-4-(pyridin-2-yl)piperazine-1-carboxamide], which Ki is on record?
The Ki was 100 to 1000 nM.

How did the Ki turn out when `CO[C@H](CNC(=O)N1CCN(c2ccc(F)c(C#N)c2)C[C@H]1C)C1CCN(Cc2ccccc2)CC1` [3-6, (2R)-N-[(2S)-2-(1-benzylpiperidin-4-yl)-2-methoxyethyl]-4-(3-cyano-4-fluorophenyl)-2-methylpiperazine-1-carboxamide] was run?
Its Ki is 10 to 100 nM.

How did the Ki turn out when `COc1cccc(CN2CCC(CCNC(=O)N3[C@H](C)CN(c4ncc(C#N)cn4)C[C@@H]3C)CC2)c1` [6-59, (2R,6S)-4-(5-cyanopyrimidin-2-yl)-N-(2-{1-[(3-methoxyphenyl)-methyl]piperidin-4-yl}ethyl)-2,6-dimethylpiperazine-1-carboxamide] was run?
Its Ki is 10 to 100 nM.

With `COc1cc(OC(F)(F)F)cc(N2CCC(C(=O)NCCC3CCN(Cc4ccccc4)CC3)CC2)c1` [10-29, N-[2-(1-benzylpiperidin-4-yl)ethyl]-1-[3-methoxy-5-(trifluoromethoxy)phenyl]piperidine-4-carboxamide] as the molecule, how does the Ki read?
The Ki was 10 to 100 nM.

How did the Ki turn out when `O=C(C1CCN(c2ncc(C(F)(F)F)cc2Cl)CC1)N(CCC1CCN(Cc2ccccc2)CC1)C1CC1` [9-58, N-[2-(1-benzylpiperidin-4-yl)ethyl]-1-[3-chloro-5(trifluoromethyl)pyridin-2-yl]-N-cyclopropylpiperidine-4-carboxamide] was run?
The Ki was 100 to 1000 nM.

With `COc1nc(N2C[C@@H](C)N(C(=O)NCCC3CCN(Cc4ccccc4)CC3)[C@@H](C)C2)ncc1C#N` [4-69, (2R,6S)-N-[2-(1-benzylpiperidin-4-yl)ethyl]-4-(5-cyano-4-methoxypyrimidin-2-yl)-2,6-dimethylpiperazine-1-carboxamide] as the molecule, how does the Ki read?
The Ki was 10 to 100 nM.

With `Cc1c(C(=O)NCCC2CCN(Cc3ccccc3O)CC2)cnc2cc(-c3ccccc3)nn12` [19-4] as the molecule, how does the Ki read?
The Ki was 100 to 1000 nM.

With `C[C@@H]1CN(c2ccc(C(F)(F)F)nc2)CCN1C(=O)NCCC1CCN(Cc2ccccc2)CC1` [4-34, (2R)-N-[2-(1-benzylpiperidin-4-yl)ethyl]-2-methyl-4-[6-(trifluoromethyl)pyridin-3-yl]piperazine-1-carboxamide] as the molecule, how does the Ki read?
Its Ki is 10 to 100 nM.

`CC(C)N(C)C(=O)c1cnc(N2C[C@@H](C)N(C(=O)NCCC3CCN(Cc4ccccc4)CC3)[C@@H](C)C2)nc1` [27-3] was tested. Which Ki did it give?
The Ki was 100 to 1000 nM.
